Experimental data published in US11578079B2, “SUMO inhibitor compounds and uses thereof” (CITY OF HOPE, priority 2018, dated 2023).

Experiments:
SUMO = molecular target: T1, SUMO (Homo sapiens, UniProt Q9UBT2); test: SUMO activity (Table I, biological activities); assay type: biochemical; set-up: key: + (less active); ++ (active); +++ (most active)
T1 sequence (Q9UBT2 1-640): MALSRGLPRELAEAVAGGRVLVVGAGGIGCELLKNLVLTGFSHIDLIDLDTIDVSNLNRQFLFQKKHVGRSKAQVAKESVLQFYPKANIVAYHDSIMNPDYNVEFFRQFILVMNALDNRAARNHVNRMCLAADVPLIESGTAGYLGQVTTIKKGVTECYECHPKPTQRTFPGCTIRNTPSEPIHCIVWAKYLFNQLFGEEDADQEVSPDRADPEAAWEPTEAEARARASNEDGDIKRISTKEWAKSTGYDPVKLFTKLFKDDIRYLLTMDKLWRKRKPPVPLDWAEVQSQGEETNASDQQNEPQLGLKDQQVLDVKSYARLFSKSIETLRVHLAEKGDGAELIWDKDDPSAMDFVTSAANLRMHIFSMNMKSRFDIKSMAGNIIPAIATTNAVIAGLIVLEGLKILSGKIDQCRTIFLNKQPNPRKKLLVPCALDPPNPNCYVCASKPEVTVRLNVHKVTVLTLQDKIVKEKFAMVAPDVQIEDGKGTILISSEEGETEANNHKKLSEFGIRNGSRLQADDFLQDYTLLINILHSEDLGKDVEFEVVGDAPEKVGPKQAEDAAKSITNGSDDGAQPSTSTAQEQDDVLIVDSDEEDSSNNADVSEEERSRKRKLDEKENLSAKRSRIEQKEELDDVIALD
T1 sequence (Q9UBE0 1-346 partner): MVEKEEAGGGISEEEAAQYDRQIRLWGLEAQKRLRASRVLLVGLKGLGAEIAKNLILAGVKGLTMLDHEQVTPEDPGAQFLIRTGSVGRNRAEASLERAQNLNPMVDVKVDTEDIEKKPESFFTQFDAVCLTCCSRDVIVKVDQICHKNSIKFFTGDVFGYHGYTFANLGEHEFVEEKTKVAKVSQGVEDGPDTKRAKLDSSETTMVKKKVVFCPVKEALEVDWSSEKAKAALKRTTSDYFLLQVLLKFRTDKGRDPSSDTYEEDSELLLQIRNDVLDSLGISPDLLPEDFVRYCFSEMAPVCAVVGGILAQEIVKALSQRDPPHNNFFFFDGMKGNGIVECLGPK

c-Myc = c-Myc activity (Table I, biological activities); set-up: key: + (less active); ++ (active); +++ (most active)

COC(=O)C1=C(C(=O)Nc2ccc(C)nc2)C2C=CC1(C(Cc1ccccc1)Nc1ccccc1)O2 (centres unmarked) [Compound 289]
SUMO (SUMO): ++
c-Myc (c-Myc): ++

COC(=O)C1=C(C(=O)OC)C2(C(Cc3ccccc3)N(C(=O)C(F)(F)F)c3ccccc3)C=CC1O2 (centres unmarked) [Compound 554]
SUMO (SUMO): ++
c-Myc (c-Myc): ++

COC(=O)C1=C(C(=O)Nc2ccccc2OC)C2C=CC1(C(Cc1ccccc1)Nc1ccccc1)O2 (centres unmarked) [Compound 352]
SUMO (SUMO): ++
c-Myc (c-Myc): +

COC(=O)C1=C(C(=O)Nc2cccnc2)C2C=CC1(C(Cc1ccccc1)Nc1cc(F)cc(F)c1)O2 (centres unmarked) [Compound 241]
SUMO (SUMO): ++
c-Myc (c-Myc): ++

COC(=O)C1=C(C(=O)OC)C2(C(CCc3ccccc3)Nc3ccccc3)C=CC1O2 (centres unmarked) [Compound 191]
SUMO (SUMO): ++
c-Myc (c-Myc): +

COC(=O)C1=C(C(=O)Nc2ccc(CN(C)C)c(F)c2)C2C=CC1(C(Cc1ccccc1)Nc1ccccc1)O2 (centres unmarked) [Compound 489]
SUMO (SUMO): ++
c-Myc (c-Myc): +

COC(=O)C1=C(C(=O)NC2CCCCC2)C2C=CC1(C(Cc1ccccc1)Nc1ccccc1)O2 (centres unmarked) [Compound 160]
SUMO (SUMO): +
c-Myc (c-Myc): +

COC(=O)C1=C(C(=O)NC2CCN(C)CC2)C2C=CC1(C(Cc1ccccc1)Nc1cc(F)cc(Cl)c1)O2 (centres unmarked) [Compound 219]
SUMO (SUMO): ++
c-Myc (c-Myc): ++

CCOC(=O)C1=C(C(=O)Nc2ccc(C)c(F)c2)C2C=CC1(C(Nc1cccc(OC)c1)c1ccc(CN3CCOCC3)cc1)O2 (centres unmarked) [Compound 615]
SUMO (SUMO): +
c-Myc (c-Myc): +

COC(=O)C1=C(C(=O)Nc2cccc(OC)c2)C2C=CC1(C(Cc1ccccc1)Nc1ccccc1)O2 (centres unmarked) [Compound 180]
SUMO (SUMO): +
c-Myc (c-Myc): +

C=CCC(Nc1ccccc1)C12C=CC(O1)C(C(=O)NCCN(CC)CC)=C2C(=O)OC (centres unmarked) [Compound 416]
SUMO (SUMO): ++
c-Myc (c-Myc): +

CCOC(=O)C1=C(C(=O)OCC)C2(C(Cc3ccc(F)cc3)Nc3ccccc3)C=CC1O2 (centres unmarked) [Compound 446]
SUMO (SUMO): ++
c-Myc (c-Myc): +

COC(=O)C1=C(C(=O)NC2CCN(C(=O)c3ccc(Cl)s3)CC2)C2C=CC1(C(Cc1ccccc1)Nc1ccccc1)O2 (centres unmarked) [Compound 392]
SUMO (SUMO): ++
c-Myc (c-Myc): +

COC(=O)C1=C(C(=O)NC2CCN(C(=O)CN(C)C)CC2)C2C=CC1(C(Cc1ccccc1)Nc1ccccc1)O2 (centres unmarked) [Compound 385]
SUMO (SUMO): ++
c-Myc (c-Myc): +

COC(=O)C1=C(C(=O)Nc2ccc(C)c(F)c2)C2C=CC1(C(Cc1ccccc1)Nc1cc(F)cc(Cl)c1)O2 (centres unmarked) [Compound 348]
SUMO (SUMO): ++
c-Myc (c-Myc): +

COC(=O)C1=C(C(=O)Nc2ccc(CN3CCN(C)CC3)cc2)C2C=CC1(C(Cc1ccccc1)Nc1ccccc1)O2 (centres unmarked) [Compound 504]
SUMO (SUMO): ++
c-Myc (c-Myc): +

CNCCNC(=O)C1=C(C(=O)OC)C2(C(Cc3ccccc3)Nc3ccccc3)C=CC1O2 (centres unmarked) [Compound 437]
SUMO (SUMO): +
c-Myc (c-Myc): +

COC(=O)C1=C(C(=O)Nc2ccc(OC)cc2)C2OC1(C(Cc1ccccc1)Oc1ccccc1)C1OC21 (centres unmarked) [Compound 522]
SUMO (SUMO): +
c-Myc (c-Myc): +

COC(=O)C1=C(C(=O)Nc2ccc(OC)cc2)C2C=CC1(C(Cc1ccccc1)Oc1ccccc1)O2 (centres unmarked) [Compound 325]
SUMO (SUMO): ++
c-Myc (c-Myc): ++

COC(=O)C1=C(C(=O)NC2CCN(C(=O)c3ccc(F)cc3)CC2)C2C=CC1(C(Cc1ccccc1)Nc1ccccc1)O2 (centres unmarked) [Compound 297]
SUMO (SUMO): ++
c-Myc (c-Myc): ++

CCOC(=O)C1=C(C(=O)Nc2ccc(OC)cc2)C2C=CC1(C(Nc1ccccc1)c1ccc(CN3CCOCC3)cc1)O2 (centres unmarked) [Compound 567]
SUMO (SUMO): ++
c-Myc (c-Myc): +

COC(=O)C1=C(C(=O)O)C2C=CC1(C(Cc1ccccc1)Nc1cc(F)cc(Cl)c1)O2 (centres unmarked) [Compound 214]
SUMO (SUMO): ++
c-Myc (c-Myc): +

COC(=O)C1=C(C(=O)NC2CCN(C)C2)C2C=CC1(C(Cc1ccccc1)Nc1ccccc1)O2 (centres unmarked) [Compound 239]
SUMO (SUMO): +++
c-Myc (c-Myc): +

COC(=O)C1=C(C(=O)OC)C2(C(Cc3ccc(F)cc3)Nc3ccccc3)C=CC1O2 (centres unmarked) [Compound 445]
SUMO (SUMO): ++
c-Myc (c-Myc): +

COC(=O)C1=C(C(=O)Nc2ccc(CN3CCOCC3)cc2)C2C=CC1(C(Cc1ccccc1)Nc1ccccc1)O2 (centres unmarked) [Compound 507]
SUMO (SUMO): ++
c-Myc (c-Myc): +

COC(=O)C1=C(C(=O)NCC2CCCO2)C2C=CC1(C(Cc1ccccc1)Nc1ccccc1)O2 (centres unmarked) [Compound 405]
SUMO (SUMO): ++
c-Myc (c-Myc): +

COC(=O)C1=C(C(=O)NC2CCN(C(=O)c3ccc(Cl)cc3)CC2)C2C=CC1(C(Cc1ccccc1)Nc1ccccc1)O2 (centres unmarked) [Compound 380]
SUMO (SUMO): ++
c-Myc (c-Myc): +

COC(=O)C1=C(C(=O)OC)C2(C(Cc3ccc(C(F)(F)F)cc3)Nc3ccccc3)C=CC1O2 (centres unmarked) [Compound 422]
SUMO (SUMO): ++
c-Myc (c-Myc): +

COC(=O)C1=C(C(=O)NCCNS(=O)(=O)c2ccccc2)C2C=CC1(C(Cc1ccccc1)Nc1ccccc1)O2 (centres unmarked) [Compound 394]
SUMO (SUMO): ++
c-Myc (c-Myc): +

CCOC(=O)C1=C(C(=O)Nc2ccc(OC)cc2)C2(C)C=CC1(C(Nc1ccccc1)c1ccc(CN3CCOCC3)cc1)O2 (centres unmarked) [Compound 581]
SUMO (SUMO): +
c-Myc (c-Myc): +

COC(=O)C1=C(C(=O)OC)C2(C(Cc3ccc(C)cc3)Nc3cc(F)cc(F)c3)C=CC1O2 (centres unmarked) [Compound 428]
SUMO (SUMO): ++
c-Myc (c-Myc): +

CCN(CC)CCNC(=O)C1=C(C(=O)OC)C2(C(Cc3ccccc3)Nc3ccc(F)cc3F)C=CC1O2 (centres unmarked) [Compound 412]
SUMO (SUMO): ++
c-Myc (c-Myc): +

CC12C=CC(C(Cc3ccccc3)Nc3ccccc3)(C=C1C(=O)c1ccc(F)cc1)O2 (centres unmarked) [Compound 526]
SUMO (SUMO): +
c-Myc (c-Myc): +

CCOC(=O)C1=C(C(=O)OCC)C2(C(Cc3ccccc3)Nc3ccc(F)cc3F)C=CC1O2 (centres unmarked) [Compound 312]
SUMO (SUMO): ++
c-Myc (c-Myc): +

COC(=O)C1=C(C(=O)OC)C2(C(Nc3ccccc3)c3ccccc3)C=CC1O2 (centres unmarked) [Compound 165]
SUMO (SUMO): ++
c-Myc (c-Myc): +

CCOC(=O)C1=C(C(=O)Nc2ccc(CN(C)C)cc2)C2C=CC1(C(Nc1ccccc1)c1ccc(CN3CCOCC3)cc1)O2 (centres unmarked) [Compound 565]
SUMO (SUMO): +
c-Myc (c-Myc): +

COC(=O)C1=C(C(=O)Nc2ccc(C)c(F)c2)C2C=CC1(C(Cc1ccccc1)Nc1ccccc1)O2 (centres unmarked) [Compound 285]
SUMO (SUMO): ++
c-Myc (c-Myc): ++

COC(=O)C1=C(C(=O)NCCN2CCOCC2)C2C=CC1(C(Cc1ccccc1)Nc1cc(F)cc(Cl)c1)O2 (centres unmarked) [Compound 226]
SUMO (SUMO): +++
c-Myc (c-Myc): ++

COC(=O)C1=C(C(=O)NC2CCNCC2)C2C=CC1(C(Cc1ccccc1)Nc1ccccc1)O2 (centres unmarked) [Compound 225]
SUMO (SUMO): +++
c-Myc (c-Myc): ++

COC(=O)C1=C(C(=O)NC2CCN(C)CC2)C2CCC1(C(Cc1ccccc1)Nc1ccccc1)O2 (centres unmarked) [Compound 304]
SUMO (SUMO): +
c-Myc (c-Myc): +

O=C(C1=CC2(C(Cc3ccccc3)Nc3ccccc3)C=CC1O2)c1ccc(F)cc1 (centres unmarked) [Compound 525]
SUMO (SUMO): +
c-Myc (c-Myc): +

COC(=O)C1=C(C(=O)NCCN2CCCC2)C2C=CC1(C(Cc1ccccc1)Nc1ccc(F)cc1)O2 (centres unmarked) [Compound 443]
SUMO (SUMO): +++
c-Myc (c-Myc): ++

COC(=O)C1=C(C(=O)NC2CCN(S(=O)(=O)c3ccccc3)CC2)C2C=CC1(C(Cc1ccccc1)Nc1ccccc1)O2 (centres unmarked) [Compound 358]
SUMO (SUMO): +
c-Myc (c-Myc): +
